Measurements taken from ChEMBL document CHEMBL1201862, “PubChem BioAssay data set” (2004).
Activity calls are given as the source filed them.

Legend:
Cytochrome P450 3A4 = Cytochrome P450 3A4 (Homo sapiens, UniProt P08684); details: Potency;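 further: confirmatory qHTS run detecting inhibitors and substrates of CYP3A4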
[1] = intracellular Trypanosoma cruzi inhibitors in host cells – cell-based, plate reader, cherry-pick samples, set 3, dose response (AID 651818); assay type: functional;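 further: compounds incubated with infected cells for about four days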
[2] = target: T1, Short transient receptor potential channel 4 (Mus musculus, UniProt Q9QUQ5); assay: mouse TRPC4 channel inhibitors, dose response, cell-based, HEK293 TRPC4/mu-opioid, Fluo-4 calcium (AID 434942); assay type: functional;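 further: potency of inhibitors blocking the TRPC4 calcium response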
T1 sequence (Q9QUQ5 whole entry): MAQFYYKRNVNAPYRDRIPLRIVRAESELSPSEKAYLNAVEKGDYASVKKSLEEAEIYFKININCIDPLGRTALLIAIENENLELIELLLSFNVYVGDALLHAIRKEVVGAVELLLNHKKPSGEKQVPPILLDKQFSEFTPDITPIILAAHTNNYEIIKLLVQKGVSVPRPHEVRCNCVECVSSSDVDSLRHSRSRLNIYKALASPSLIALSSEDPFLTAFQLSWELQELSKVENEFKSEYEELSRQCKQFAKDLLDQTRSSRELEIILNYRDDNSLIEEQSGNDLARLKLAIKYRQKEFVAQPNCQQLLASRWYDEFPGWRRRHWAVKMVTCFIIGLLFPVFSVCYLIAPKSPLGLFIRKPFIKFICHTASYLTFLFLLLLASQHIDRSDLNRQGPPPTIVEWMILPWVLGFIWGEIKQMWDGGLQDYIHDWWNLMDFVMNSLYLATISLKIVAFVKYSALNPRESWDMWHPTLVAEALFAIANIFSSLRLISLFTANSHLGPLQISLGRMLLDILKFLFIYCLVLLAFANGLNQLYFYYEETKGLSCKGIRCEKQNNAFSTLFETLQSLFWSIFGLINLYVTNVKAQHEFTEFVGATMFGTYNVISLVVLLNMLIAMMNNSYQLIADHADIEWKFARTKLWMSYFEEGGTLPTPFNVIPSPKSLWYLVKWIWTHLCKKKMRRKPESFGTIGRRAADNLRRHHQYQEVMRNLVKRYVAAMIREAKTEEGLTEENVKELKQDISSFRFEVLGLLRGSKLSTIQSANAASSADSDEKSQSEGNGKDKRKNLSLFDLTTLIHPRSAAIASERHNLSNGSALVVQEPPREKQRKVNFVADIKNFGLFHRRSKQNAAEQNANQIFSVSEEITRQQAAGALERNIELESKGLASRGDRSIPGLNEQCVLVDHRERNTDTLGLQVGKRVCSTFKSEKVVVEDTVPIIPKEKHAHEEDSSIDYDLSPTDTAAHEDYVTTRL

INS1 = assay: beta cell apoptosis inhibitors, cytokine rescue, dose response, luminescence, retest (AID 449756); assay type: functional, cell-based; details: Rattus norvegicus;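 further: cell death triggered by IL-1 beta plus TNF-alpha plus IFN-gamma mixture; protective hits raise ATP signal compared with cytokine alone wells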
[3] = C. albicans growth with fluconazole, confirmation, fluorescence, retest (AID 2467); assay type: functional, cell-based
[4] = Luminescence Cell-Based Dose Response HTS to Identify Inhibitors of 5'UTR Stem-Loop Driven Prion Protein mRNA Translation in H4 Neuroglioblastoma Cells. [Related pubchem assays: 1827 (Project Summary), 1813 (Primary HTS)]; assay type: functional
Nonstructural protein 1 = Nonstructural protein 1 (Influenza A virus, UniProt Q194T2); assay type: functional, Influenza A virus (A/California/07/2009(H1N1))
[5] = HepG2 cell cytotoxicity, dose response, cytotoxicity control for Shn3 inhibitor project, CellTiter-Glo, cherry-picked (AID 624134); assay type: functional, cell-based
[6] = Shn3 3'UTR reporter inhibitors, dose response, cell-based, Clone20 osteoblasts, firefly luciferase, cherry-picked (AID 624132); assay type: functional;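 further: firefly luciferase luminescence from reporter carrying the Shn3 3'UTR in osteoblasts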
[7] = target: Heat shock protein HSP 90-alpha (Homo sapiens, UniProt P07900); assay type: functional, organism-based
[8] = NIH-3T3 fibroblast cytotoxicity, dose response, cytotoxicity control, cell-based, fluorescence, Alamar Blue, secondary assay (AID 2327); assay type: functional;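 further: NIH-3T3 mouse fibroblasts cultured with fluconazole at 8 µg/mL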
[9] = control 3'UTR Renilla luciferase suppression, dose response, counter-screen for Shn3 inhibitor project, cell-based, Clone20-Shn3RL, cherry-picked (AID 624133); assay type: functional
[10] = inhibitors of firefly luciferase expression or activity, dose response, H4 neuroglioma cells, luminescence (AID 1990); assay type: functional, cell-based
[11] = inhibitors of SNCA 5'UTR-driven reporter translation, confirmation, H4 neuroglioma cells, luminescence (AID 1988); assay type: functional, cell-based
cells [12] = assay type: functional, cell-based
cells [13] = assay type: functional, cell-based; remark: listed apart in the source
[14] = NIH:OVCAR-3 ovarian cancer cell cytotoxicity, dose response, PAX8 inhibitor project, plate reader, dry powder samples (AID 743044); assay type: functional, cell-based
[15] = cytotoxicity in OVCAR8 ovarian cancer cells, dose response, PAX8 project, cell-based, plate reader, dry powder samples (AID 743197); assay type: functional; details: OVCAR-8
Paired box protein Pax-8 = Paired box protein Pax-8 (Homo sapiens, UniProt Q06710); assay: inhibitors of PAX8-driven TPO luciferase reporter, dose response, RMG-I cells, cherry-pick (AID 687027); assay type: functional, cell-based;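 further: luciferase reporter driven by Pax8 target thyroperoxidase promoter measured by SteadyGlo luminescence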
[16] = cytotoxicity toward DRD oncogenic fibroblasts, dose response, cell-based, non-viral oncogenic, luminescence (AID 1934); assay type: functional; details: Homo sapiens
BJ [17] = assay: cytotoxicity toward BJ-TERT fibroblasts, dose response, cell-based, RAS-independent, luminescence (AID 1933); assay type: functional; details: Homo sapiens
BJ [18] = assay: cytotoxicity toward BJ-TERT-LT-ST fibroblasts, dose response, cell-based, RAS-independent, luminescence (AID 1935); assay type: functional; details: Homo sapiens;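 further: BJ fibroblasts immortalized with TERT plus LT and ST oncogenes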
BJ [19] = assay: cells; assay type: functional, cell-based; details: Homo sapiens
[20] = target: T2, Microphthalmia-associated transcription factor (Homo sapiens, UniProt O75030); assay: TRPM1 promoter luciferase signal decrease, dose response, MITF inhibitor project, cell-based, SK-MEL-5, cherry-picked, set 3 (AID 493073); assay type: functional
T2 sequence (O75030 whole entry): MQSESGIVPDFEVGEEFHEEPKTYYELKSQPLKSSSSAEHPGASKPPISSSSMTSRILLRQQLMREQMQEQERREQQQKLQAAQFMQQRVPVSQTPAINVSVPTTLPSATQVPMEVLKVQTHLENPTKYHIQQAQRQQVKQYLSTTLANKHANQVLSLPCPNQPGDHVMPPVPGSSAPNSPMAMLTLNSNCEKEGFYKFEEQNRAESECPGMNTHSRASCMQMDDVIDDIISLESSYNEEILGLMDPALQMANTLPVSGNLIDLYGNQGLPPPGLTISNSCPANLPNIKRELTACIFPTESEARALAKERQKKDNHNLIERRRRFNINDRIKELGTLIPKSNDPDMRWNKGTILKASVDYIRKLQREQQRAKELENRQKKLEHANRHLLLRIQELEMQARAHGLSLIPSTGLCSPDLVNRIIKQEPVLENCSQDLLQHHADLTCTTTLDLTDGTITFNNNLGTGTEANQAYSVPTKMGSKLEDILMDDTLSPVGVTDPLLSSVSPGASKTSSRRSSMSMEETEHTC

Cytochrome P450 3A4, sequence (P08684 whole entry): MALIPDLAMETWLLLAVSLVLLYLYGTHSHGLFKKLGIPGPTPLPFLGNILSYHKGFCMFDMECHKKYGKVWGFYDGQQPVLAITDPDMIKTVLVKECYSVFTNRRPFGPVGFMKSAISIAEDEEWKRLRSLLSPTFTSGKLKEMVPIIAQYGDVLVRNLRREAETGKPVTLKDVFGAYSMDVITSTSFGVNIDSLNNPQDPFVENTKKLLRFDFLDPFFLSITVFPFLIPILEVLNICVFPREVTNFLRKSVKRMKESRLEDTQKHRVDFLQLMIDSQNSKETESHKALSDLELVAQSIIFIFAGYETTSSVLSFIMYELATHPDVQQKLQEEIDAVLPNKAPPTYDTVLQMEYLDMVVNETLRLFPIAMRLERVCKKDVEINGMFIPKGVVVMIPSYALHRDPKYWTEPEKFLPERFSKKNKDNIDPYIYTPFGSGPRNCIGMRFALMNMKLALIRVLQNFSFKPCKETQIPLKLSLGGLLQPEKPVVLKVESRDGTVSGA
Paired box protein Pax-8, sequence (Q06710 whole entry): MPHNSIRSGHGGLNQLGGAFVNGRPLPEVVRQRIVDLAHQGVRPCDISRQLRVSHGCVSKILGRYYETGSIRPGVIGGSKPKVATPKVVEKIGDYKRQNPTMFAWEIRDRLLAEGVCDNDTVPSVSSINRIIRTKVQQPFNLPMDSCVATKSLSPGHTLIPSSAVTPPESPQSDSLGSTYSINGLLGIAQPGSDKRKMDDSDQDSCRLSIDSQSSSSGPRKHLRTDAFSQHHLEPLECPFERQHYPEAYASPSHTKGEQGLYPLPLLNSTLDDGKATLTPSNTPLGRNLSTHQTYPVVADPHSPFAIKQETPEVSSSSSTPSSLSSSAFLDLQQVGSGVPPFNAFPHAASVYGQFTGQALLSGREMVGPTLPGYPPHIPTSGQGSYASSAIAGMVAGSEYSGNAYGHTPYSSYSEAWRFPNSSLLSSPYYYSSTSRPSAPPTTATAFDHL
Nonstructural protein 1, sequence (Q194T2 whole entry): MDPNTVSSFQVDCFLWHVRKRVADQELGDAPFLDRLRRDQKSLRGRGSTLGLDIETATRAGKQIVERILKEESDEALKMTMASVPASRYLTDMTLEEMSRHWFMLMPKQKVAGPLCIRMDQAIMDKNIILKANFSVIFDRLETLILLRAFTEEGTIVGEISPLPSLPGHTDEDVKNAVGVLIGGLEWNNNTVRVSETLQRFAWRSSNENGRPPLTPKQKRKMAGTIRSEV

Q: With O=C(O)c1sccc1S(=O)(=O)Nc1ccc(Cl)cc1 as the molecule, how does the AC50 (Cytochrome P450 3A4) read?
A: 7.94 µM (inconclusive)

Q: For C[C@H]1CN([C@@H](C)CO)C(=O)c2cc(NC(=O)Nc3cccc4ccccc34)ccc2O[C@@H]1CN(C)Cc1ccc(Cl)c(Cl)c1, which AC50 [1] is on record?
A: 3.43 µM (active)

Q: Which EC50 [2] does the source give for CC1CCc2c(sc(/N=C/N(C)C)c2C#N)C1 (stereo unspecified) here?
A: 2.99 µM (active)

Q: Which results are given for Oc1c(C(Nc2cccc(C(F)(F)F)c2)c2ccncc2)ccc2cccnc12 (stereo unspecified)?
A: AC50 (INS1): 3.82 µM (active); EC50 [3]: 3.42 µM (active); EC50 [4]: 15.3 µM (active); IC50 (Nonstructural protein 1): 8.76 µM (active); AC50 [5]: 7.21 µM (active); AC50 [6]: 5.8 µM (active); AC50 [7]: 6.48 µM (active); EC50 [8]: 18.3 µM (active); AC50 [9]: 6.9 µM (active); EC50 [10]: 11.9 µM (active); EC50 [11]: 9.42 µM (active); EC50 (cells [12]): 9.32 µM (active); EC50 (cells [13]): > 350 µM (not active)

Q: Which AC50 [1] does the source give for C[C@H](CO)N1C[C@H](C)[C@H](CN(C)C(=O)Nc2ccc(C(F)(F)F)cc2)Oc2ccc(NC(=O)Nc3ccc(C(F)(F)F)cc3)cc2C1=O here?
A: 4.23 µM (active)

Q: Which AC50 (Cytochrome P450 3A4) does the source give for COC(=O)[C@@H]1C[C@@]2(O)[C@@H](O)[C@@H](O)[C@@H](O)C[C@H]2N1Cc1cc(F)ccc1F here?
A: 25.1 µM (inconclusive)

Q: Which AC50 (Cytochrome P450 3A4) does the source give for CC(=O)NNc1ccccc1 here?
A: 31.6 µM (inconclusive)

Q: For C[C@@H]1CN([C@H](C)CO)C(=O)c2cccc(NC(=O)Nc3cccc4ccccc34)c2O[C@@H]1CN(C)S(=O)(=O)c1ccc(Cl)cc1, which AC50 [14] is on record?
A: 43.3 µM (active)

Q: And the AC50 [15]?
A: 56.3 µM (active)

Q: What about the AC50 (Paired box protein Pax-8) of the same molecule?
A: 5.69 µM (active)

Q: With Cc1cc(C(=O)N/N=C\c2cc(C(C)(C)C)ccc2O)[nH]n1 as the molecule, how does the EC50 [2] read?
A: 6.68 µM (active)

Q: For O=C(NC(=S)NNC(=O)c1cnccn1)c1ccc(Cl)cc1, which EC50 [3] is on record?
A: 1.69 µM (active)

Q: And the EC50 [4]?
A: 9.78 µM (active)

Q: What about the IC50 (Nonstructural protein 1) of the same molecule?
A: 3.01 µM (active)

Q: And the EC50 [16]?
A: 25.5 µM (active)

Q: What about the EC50 [8] of the same molecule?
A: 5.78 µM (active)

Q: What about the EC50 [10] of the same molecule?
A: 11.9 µM (active)

Q: And the EC50 [11]?
A: 9.3 µM (active)

Q: What about the EC50 (BJ [17]) of the same molecule?
A: 22.8 µM (active)

Q: What about the EC50 (BJ [18]) of the same molecule?
A: > 150 µM (not active)

Q: And the EC50 (BJ [19])?
A: > 150 µM (not active)

Q: Which AC50 [7] does the source give for O=C1[C@@H]2C(c3cccnc3)=NO[C@@H]2C(=O)N1c1ccc(Br)cc1 here?
A: 5.67 µM (active)

Q: With C[C@H](CO)N1C[C@H](C)[C@@H](CN(C)Cc2ccc(Oc3ccccc3)cc2)Oc2c(NC(=O)Nc3ccccc3)cccc2C1=O as the molecule, how does the AC50 [1] read?
A: 2.17 µM (active)

Q: For CCCCNC(=O)Nc1ccc(C2SCCS2)cc1, which AC50 [20] is on record?
A: 35.3 µM (active)

Q: Which results are given for C[C@H](CO)N1C[C@H](C)[C@H](CN(C)Cc2ccc(C(F)(F)F)cc2)OCCCC[C@H](C)Oc2ccc(NS(=O)(=O)c3ccc(F)cc3)cc2C1=O?
A: AC50 [14]: 53.3 µM (active); AC50 [15]: 58.2 µM (active); AC50 (Paired box protein Pax-8): 7.71 µM (active)

Q: Which AC50 [7] does the source give for O=C1c2cc(Cl)ccc2-c2c(O)cc(Cl)cc21 here?
A: 2.08 µM (active)

Q: With COc1c(CC=C(C)C)c2c(c3oc(=O)c(-c4ccc(O)cc4)c(O)c13)C=CC(C)(C)O2 [SCANDENIN] as the molecule, how does the AC50 (Cytochrome P450 3A4) read?
A: 20 µM (inconclusive)
